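Grown in 96-well plates, cells were treated for 48 hours with each compound at five concentrations. Insufficient inhibition: endpoint recorded as highest concentration tested. GI50 marks 50% less growth.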 Active and inactive are the calls of the source. Rule as the data show it: active = GI50 up to about 1.1 µM and inactive = higher.
Tests used:
Assay in all cases: DTP human tumour cell line panel, 48 h
[1] = tested on: SF-295
[2] = tested on: SW-620
[3] = tested on: OVCAR-4
[4] = tested on: EKVX
[5] = tested on: RPMI-8226
[6] = tested on: A498
[7] = tested on: SK-OV-3
[8] = tested on: SK-MEL-2
[9] = tested on: MOLT-4
[10] = tested on: NCI-H460
[11] = tested on: KM12
[12] = tested on: UACC-62
[13] = tested on: LOX IMVI
[14] = tested on: HL-60
[15] = tested on: CAKI-1
[16] = tested on: Malme-3M

Measured: GI50

COc1c(NC(C)=O)cc(C)cc1NC(C)=O
inactive: [1] > 100 µM | [2] > 100 µM | [3] > 100 µM | [4] > 100 µM | [5] > 100 µM | [6] > 100 µM | [7] > 100 µM | [8] > 100 µM | [9] > 100 µM | [10] > 100 µM | [11] > 100 µM | [12] > 100 µM | [13] > 100 µM | [14] > 100 µM | [15] > 100 µM

O=S(=O)(NCn1ccc2ccccc21)c1ccccc1
inactive: [1] > 100 µM | [2] 38.4 µM | [4] > 100 µM | [5] 21.5 µM | [16] > 100 µM | [6] > 100 µM | [7] > 100 µM | [8] > 100 µM | [9] > 100 µM | [10] > 100 µM | [11] > 60.7 µM | [12] > 73.8 µM | [13] 66.5 µM | [14] 22.4 µM

O=C(/C=C/c1c(O)ccc2ccccc12)c1ccc2ccccc2c1
inactive: [1] > 100 µM | [2] > 100 µM | [3] > 100 µM | [4] > 100 µM | [5] > 100 µM | [16] > 100 µM | [6] > 100 µM | [7] > 100 µM | [8] > 100 µM | [9] > 100 µM | [10] > 100 µM | [11] > 100 µM | [12] 59.8 µM | [13] > 100 µM | [14] > 100 µM | [15] > 100 µM

C[C@H]1COC2(c3ccccc3)CCC(=O)N12 (some centres not stated)
inactive: [1] > 100 µM | [2] > 100 µM | [3] > 100 µM | [4] > 100 µM | [5] > 100 µM | [16] > 100 µM | [6] > 100 µM | [8] > 100 µM | [10] > 100 µM | [11] > 100 µM | [12] > 100 µM | [13] > 100 µM | [15] > 100 µM

Cc1ccc(NC(=O)CC(=O)n2nc(-c3ccccc3)c(/N=N\c3ccccc3[N+](=O)[O-])c2-c2ccccc2)cc1
inactive: [1] 29 µM | [2] > 100 µM | [3] 45.3 µM | [4] > 100 µM | [5] > 100 µM | [16] 86.1 µM | [7] 80.2 µM | [8] > 100 µM | [9] > 100 µM | [10] 35.8 µM | [11] > 100 µM | [12] > 100 µM | [13] 93.5 µM | [14] 86.5 µM | [15] 69.7 µM

O=c1[nH]c(C2CCCCC2)nc2cc(Cl)ccc12
inactive: [1] 92.7 µM | [2] > 100 µM | [3] 67.3 µM | [4] > 100 µM | [5] > 100 µM | [16] > 100 µM | [7] > 100 µM | [8] > 100 µM | [9] > 100 µM | [11] > 100 µM | [12] > 100 µM | [15] > 100 µM

NN=C1/C(=C\c2ccccc2)CCC/C1=C/c1ccccc1
inactive: [1] 45.3 µM | [2] 42.5 µM | [3] 49.4 µM | [4] 44.7 µM | [5] 16.4 µM | [16] 22.4 µM | [6] 29.6 µM | [7] > 100 µM | [8] 36.6 µM | [9] 17.9 µM | [10] 32 µM | [11] 34.1 µM | [12] 40.3 µM | [13] 26.2 µM | [14] 20.3 µM

CC(=O)/C=C\C1CC2C=CC1C2 (configuration not stated)
inactive: [1] 31 µM | [2] 33.7 µM | [3] 27.1 µM | [4] 64.9 µM | [5] 23.9 µM | [16] 27.2 µM | [7] > 100 µM | [8] 49.2 µM | [9] 20.8 µM | [10] 44.1 µM | [11] 32.3 µM | [12] 58.3 µM | [13] 14.1 µM | [14] 26.8 µM

COCOc1ccc(Cn2c(=O)n(C)c(=O)c3c2ncn3C)cc1[N+](=O)[O-]
inactive: [1] 25.7 µM | [2] > 100 µM | [4] 54.7 µM | [5] 66.2 µM | [16] > 100 µM | [7] 49.3 µM | [9] 91.8 µM | [10] > 100 µM | [11] > 100 µM | [12] > 100 µM | [13] > 100 µM | [14] > 100 µM

CC(=O)NC(CCCNC(=O)OCc1ccccc1)C(=O)O (configuration not stated)
inactive: [1] > 100 µM | [2] > 100 µM | [3] 36.1 µM | [4] > 100 µM | [5] > 100 µM | [16] > 100 µM | [6] > 100 µM | [7] > 100 µM | [8] > 100 µM | [9] > 100 µM | [10] > 100 µM | [11] > 100 µM | [12] > 100 µM | [13] > 100 µM | [15] > 100 µM

CC/C(CC(=O)CCC(=O)Nc1ccc(C)c(C)c1)=N\NC(=O)C(N)=O
inactive: [1] > 100 µM | [2] > 100 µM | [3] > 100 µM | [4] > 100 µM | [5] > 100 µM | [16] > 100 µM | [6] > 100 µM | [7] > 100 µM | [9] > 100 µM | [12] > 100 µM | [14] > 100 µM | [15] > 100 µM

CC1(O)CCn2c(=O)c3cc4ccccc4cc3c(=O)n2C1O (configuration not stated)
inactive: [1] > 100 µM | [2] > 100 µM | [4] > 100 µM | [5] > 100 µM | [16] > 100 µM | [7] > 100 µM | [8] > 100 µM | [9] > 100 µM | [10] > 100 µM | [11] > 100 µM | [12] > 100 µM | [13] > 100 µM | [14] > 100 µM | [15] > 100 µM

CC(=O)O[C@H]1C(=O)[C@@]2(C)C(C(OC(=O)c3ccccc3)[C@]3(O)CC(OC(=O)C(O)C(NC(=O)c4ccc(C(F)(F)F)cc4)c4ccccc4)C(C)=C1C3(C)C)[C@]1(OC(C)=O)CO[C@@H]1C[C@@H]2O (some centres not stated)
inactive: [3] 8.77 µM | [6] 1.19 µM
active: [1] 0.239 µM | [2] 0.0552 µM | [5] 0.0628 µM | [16] 0.109 µM | [7] 0.129 µM | [8] 0.0914 µM | [9] 0.0324 µM | [10] 0.103 µM | [11] 0.0611 µM | [12] 0.0723 µM | [13] 0.156 µM | [14] 0.0951 µM | [15] 0.076 µM

C=CCNC(=O)/C=C\C(=O)O
inactive: [1] > 100 µM | [2] > 100 µM | [3] > 100 µM | [4] > 100 µM | [16] > 100 µM | [6] > 100 µM | [7] > 100 µM | [8] > 100 µM | [9] > 100 µM | [10] > 100 µM | [11] > 100 µM | [12] > 100 µM | [13] > 100 µM | [14] > 100 µM | [15] > 100 µM
